Legend:
Type in all cases: biochemical
fes = fes (Homo sapiens, UniProt P07332); test: fes kinase assay (ELISA or Alphascreen); details: read-out: fes inhibition of enzyme activity
Protocol: (§1) Kinase assays were performed in a 96 well capture-based ELISA assay or in 384 well Optiplates (Packard) using an Alphascreen Protein Tyrosine Kinase kit. In either case using approximately 1.5 μg of affinity purified PTK domain in the presence of 50 mM HEPES, pH 7.5, 10 mM MgCl2, 150 mM NaCl and 10 μM-1 mM ATP. The biotinylated substrate biotin-EGPWLEEEEEAYGWMDF-NH2 (SEQ ID NO:9) (final concentration 5 μM) was used as substrate. In the ELISA assay tyrosine phosphorylation was quantitated following transfer to an avidin coated ELISA plate using peroxidase-linked anti-phosphotyrosine antibody PY20. In the Alphascreen assay, Alphascreen phosphotyrosine acceptor beads followed by streptavidin donor beads were added under subdued light. The ELISA plates were read on a BMG Fluorostar, the Alphascreen plates were read on a Packard Fusion Alpha. Inhibitors were added to the assays fifteen minutes prior to the addition of ATP. Inhibitors were added in aqueous […] concentrations never exceeding 1%.

human JAK2 = molecular target: T1, human JAK2 (Homo sapiens, UniProt O60674); test: JAK2 kinase assay (ELISA or Alphascreen); details: read-out: Jak2 inhibition of enzyme activity
T1 construct: The kinase domain of human JAK2 was amplified from U937mRNA; His tag (from the pFastBac HTc vector) (N); made in house; host or cells: baculovirus; Sf9 for virus, High Five insect cells for production
Description: The kinase domain of human JAK2 was amplified from U937mRNA using the polymerase chain reaction with the following primers: […]
JAK2 PCR products were doped into the pFastBac HTc expression vector (Gibco) via the Sal I and Not I sites. The JAK2 plasmid was than transformed into competent DH10Bac cells (Gibco), and the recombinant baculovirus produced prepared for transfection into Sf9 insect cells.
(§2) Baculovirus preparations from each of the JAK family members were infected into five liters of High Five cells (Invitrogen) grown in High Five serum free medium (Invitrogen) to a cell density of approximately 1-2×10^6 cells/ml. Cells are infected with virus at a MOI of 0.8-3.0. Cells were harvested and lysed. JAK kinase domains were purified by affinity chromatography on a Probond (Invitrogen) nickel chelate affinity column.
as §1

Zap70 = molecular target: T2, Zap70 (Homo sapiens, UniProt P43403); test: Zap70 kinase assay (ELISA or Alphascreen); details: read-out: Zap70 inhibition of enzyme activity
T2 sequence (P43403 338-600 limits assumed): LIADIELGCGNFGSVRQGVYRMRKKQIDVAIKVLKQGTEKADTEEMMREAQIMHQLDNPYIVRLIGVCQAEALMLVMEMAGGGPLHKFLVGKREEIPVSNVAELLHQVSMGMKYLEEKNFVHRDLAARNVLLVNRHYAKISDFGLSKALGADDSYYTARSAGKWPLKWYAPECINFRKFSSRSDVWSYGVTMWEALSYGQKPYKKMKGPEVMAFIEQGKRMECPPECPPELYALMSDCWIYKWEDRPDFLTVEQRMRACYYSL
Protocol: as §1

fms = molecular target: T3, fms (Homo sapiens, UniProt P07333); test: fms kinase assay (ELISA or Alphascreen); details: read-out: fms inhibition of enzyme activity
T3 sequence (P07333 582-910 limits assumed): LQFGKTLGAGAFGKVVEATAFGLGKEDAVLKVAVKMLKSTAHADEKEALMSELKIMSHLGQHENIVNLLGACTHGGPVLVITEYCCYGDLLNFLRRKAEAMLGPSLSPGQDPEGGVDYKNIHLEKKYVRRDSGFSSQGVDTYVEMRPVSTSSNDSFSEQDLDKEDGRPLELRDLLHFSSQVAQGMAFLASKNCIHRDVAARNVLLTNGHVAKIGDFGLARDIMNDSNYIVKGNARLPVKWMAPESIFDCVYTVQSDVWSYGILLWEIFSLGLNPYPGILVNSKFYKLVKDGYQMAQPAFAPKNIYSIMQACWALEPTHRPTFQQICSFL
Protocol: as §1

hck = hck (Homo sapiens, UniProt P08631); test: hck kinase assay (ELISA or Alphascreen); details: read-out: hck inhibition of enzyme activity
Protocol: as §1

human JAK3 = molecular target: T4, human JAK3 (Homo sapiens, UniProt P52333); test: JAK3 kinase assay (ELISA or Alphascreen); details: read-out: Jak3 inhibition of enzyme activity
T4 construct: The kinase domain of human JAK3 was amplified from U937mRNA; His tag (from the pFastBac HTb vector) (N); made in house; host or cells: baculovirus; Sf9 for virus, High Five insect cells for production
Description: The kinase domain of human JAK3 was amplified from U937mRNA using the polymerase chain reaction with the following primers: […]
JAK3 PCR products were cloned into the pFastBac HTb expression vector (Gibco) via the Xho I and Kpn I sites. The JAK3 plasmid was then transformed into competent DH10Bac cells (Gibco), and the recombinant baculovirus produced prepared for transfection into Sf9 insect cells.
as §2, §1

abl = molecular target: T5, abl (Homo sapiens, UniProt P00519); test: abl kinase assay (ELISA or Alphascreen); details: read-out: abl inhibition of enzyme activity
T5 sequence (P00519 242-493 limits assumed): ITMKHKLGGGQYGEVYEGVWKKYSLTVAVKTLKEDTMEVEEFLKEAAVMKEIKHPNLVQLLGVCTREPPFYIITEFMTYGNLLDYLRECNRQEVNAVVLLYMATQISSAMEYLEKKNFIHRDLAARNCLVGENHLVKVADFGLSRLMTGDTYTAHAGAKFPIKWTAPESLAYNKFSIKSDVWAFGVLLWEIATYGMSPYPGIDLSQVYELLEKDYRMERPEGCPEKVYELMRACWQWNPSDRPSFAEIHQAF
Protocol: as §1

fes, sequence (P07332 561-822 limits assumed, species assumed): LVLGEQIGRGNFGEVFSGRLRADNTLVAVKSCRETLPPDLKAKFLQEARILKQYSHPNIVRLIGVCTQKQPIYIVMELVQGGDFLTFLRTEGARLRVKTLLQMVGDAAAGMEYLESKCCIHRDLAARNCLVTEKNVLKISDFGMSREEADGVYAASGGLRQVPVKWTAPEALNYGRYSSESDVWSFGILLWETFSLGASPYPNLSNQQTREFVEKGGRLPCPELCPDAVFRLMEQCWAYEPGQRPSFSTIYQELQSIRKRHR
hck, sequence (P08631 262-515 limits assumed, species assumed): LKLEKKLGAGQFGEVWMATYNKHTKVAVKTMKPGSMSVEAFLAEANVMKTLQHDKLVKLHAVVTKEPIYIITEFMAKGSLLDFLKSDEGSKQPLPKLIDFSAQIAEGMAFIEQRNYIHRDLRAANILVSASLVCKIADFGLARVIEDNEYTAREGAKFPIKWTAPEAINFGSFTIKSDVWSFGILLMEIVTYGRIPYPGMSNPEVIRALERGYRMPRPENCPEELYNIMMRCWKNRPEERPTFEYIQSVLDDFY
T4 sequence (P52333 822-1111 limits assumed): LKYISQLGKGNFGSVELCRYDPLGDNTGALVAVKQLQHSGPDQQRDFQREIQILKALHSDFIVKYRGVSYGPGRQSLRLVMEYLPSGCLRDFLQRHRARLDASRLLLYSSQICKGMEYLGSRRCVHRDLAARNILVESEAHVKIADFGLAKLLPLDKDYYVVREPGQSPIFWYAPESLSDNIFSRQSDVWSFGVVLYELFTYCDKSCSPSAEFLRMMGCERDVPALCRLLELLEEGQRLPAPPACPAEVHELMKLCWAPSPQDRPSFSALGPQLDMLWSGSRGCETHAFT
T1 sequence (O60674 849-1124 limits assumed): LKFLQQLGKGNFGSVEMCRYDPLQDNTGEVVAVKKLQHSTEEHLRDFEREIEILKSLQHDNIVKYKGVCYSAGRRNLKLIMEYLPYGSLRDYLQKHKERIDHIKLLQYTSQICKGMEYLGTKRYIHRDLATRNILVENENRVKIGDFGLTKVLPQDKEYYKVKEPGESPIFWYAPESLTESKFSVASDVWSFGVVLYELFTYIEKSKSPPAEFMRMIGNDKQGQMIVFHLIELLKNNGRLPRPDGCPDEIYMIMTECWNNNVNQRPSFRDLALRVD

| Compound | inhibition at 10 µM (fes) [%] | inhibition at 10 µM (human JAK2) [%] | inhibition at 10 µM (Zap70) [%] | inhibition at 10 µM (fms) [%] | inhibition at 10 µM (hck) [%] | inhibition at 10 µM (human JAK3) [%] | inhibition at 10 µM (abl) [%] |
| --- | --- | --- | --- | --- | --- | --- | --- |
| COc1cc(CNC(=O)c2cncc(-c3cc(C)c(O)c(C)c3)c2)cc(OC)c1 | < 50 | < 50 | < 50 | ≥ 50 | < 50 | < 50 |  |
| COc1cc(NC(=O)c2cncc(-c3cc(OC)c(OC)c(OC)c3Cl)c2)cc(OC)c1OC | < 50 | < 50 | < 50 | < 50 | < 50 | < 50 |  |
| COc1cccc([C@H](C)NC(=O)c2cncc(-c3ccc(O)c(OC)c3)c2)c1 | < 50 | < 50 | < 50 | < 50 | < 50 | < 50 |  |
| COc1cc(-c2cncc(C(=O)NC(C)C)c2)c(Cl)c(OC)c1OC | < 50 | < 50 | < 50 | < 50 | < 50 | < 50 |  |
| O=C(NCc1ccncc1)c1cncc(-c2cccs2)c1 | < 50 | < 50 | < 50 | < 50 | < 50 | < 50 |  |
| COc1ccc(CNC(=O)c2cncc(-c3ccc4c(c3)OCO4)c2)cc1 | < 50 | < 50 | < 50 | < 50 | < 50 | < 50 |  |
| Cc1cc(-c2cncc(C(=O)NC(C)CCc3ccccc3)c2)cc(C)c1O (stereo not drawn) | < 50 | < 50 | < 50 | < 50 | < 50 | < 50 |  |
| Cc1ccccc1NC(=O)c1cncc(-c2ccc(O)cc2)c1 | < 50 | < 50 | < 50 | ≥ 50 | ≥ 50 | < 50 |  |
| C[C@@H](NC(=O)c1cncc(-c2ccc(O)cc2)c1)c1ccccc1 | < 50 | < 50 | < 50 |  | < 50 |  | < 50 |
| COc1ccc(NC(=O)c2cncc(-c3ccc4c(c3)OCO4)c2)c(OC)c1 | < 50 | < 50 |  | < 50 | < 50 | < 50 |  |
| Cc1ccc(C)c(NC(=O)c2cncc(-c3ccc(F)cc3)c2)c1 | < 50 | < 50 | < 50 | < 50 | < 50 | < 50 |  |
| O=C(NCc1ccc(N2CCOCC2)cc1)c1cncc(-c2cccs2)c1 | < 50 | < 50 | < 50 |  | < 50 |  | < 50 |
| CC(C)C(CO)NC(=O)c1cncc(-c2cccs2)c1 (stereo not drawn) | < 50 | < 50 | < 50 | < 50 | < 50 | < 50 |  |
| Cc1ccc(F)cc1NC(=O)c1cncc(-c2cc(C)c(O)c(C)c2)c1 |  | < 50 | < 50 | ≥ 50 | ≥ 50 | < 50 |  |
| COc1cc(-c2cncc(C(=O)Nc3ccccc3C)c2)ccc1O | < 50 | < 50 | < 50 | < 50 | ≥ 50 | < 50 |  |
| COc1cc(-c2cncc(C(=O)NCCc3ccccc3)c2)c(Cl)c(OC)c1OC | < 50 | < 50 | < 50 | < 50 | < 50 | < 50 |  |
| O=C(NCc1ccc(Cl)c(Cl)c1)c1cncc(-c2cccs2)c1 | < 50 | < 50 | < 50 | < 50 | < 50 | < 50 |  |
| C[C@@H](NC(=O)c1cncc(-c2ccc3c(c2)OCO3)c1)c1ccccc1 | < 50 | < 50 | < 50 | < 50 | < 50 | < 50 |  |
| COc1cc(CNC(=O)c2cncc(-c3ccc4c(c3)OCO4)c2)cc(OC)c1 | < 50 | < 50 | < 50 |  | < 50 |  | < 50 |
| CN(Cc1ccccc1)C(=O)c1cncc(-c2ccc(O)cc2)c1 | < 50 | < 50 | < 50 | < 50 | < 50 | < 50 |  |
| COc1cccc(-c2cncc(C(=O)NCc3cccnc3)c2)c1 | < 50 | < 50 | ≥ 50 | < 50 | < 50 | < 50 |  |
| O=C(NCCc1ccccc1)c1cncc(-c2ccc(O)cc2)c1 | < 50 | < 50 | < 50 | < 50 | < 50 | < 50 |  |
| COc1cc(-c2cncc(C(=O)Nc3ccc(F)cc3C)c2)c(Cl)c(OC)c1OC | < 50 | < 50 | < 50 | ≥ 50 | ≥ 50 | < 50 |  |
| Cc1cc(-c2cncc(C(=O)N[C@H](C)c3ccccc3)c2)cc(C)c1O | < 50 | < 50 | < 50 |  | < 50 |  | < 50 |
| O=C(NCc1ccc(F)cc1)c1cncc(-c2ccc(F)cc2)c1 | < 50 | ≥ 50 | < 50 | < 50 |  | < 50 | < 50 |
| Cc1ccc(CNC(=O)c2cncc(-c3cc(C)c(O)c(C)c3)c2)cc1 | < 50 | < 50 | < 50 | < 50 |  | < 50 | < 50 |
| C[C@H](NC(=O)c1cncc(-c2ccc3c(c2)OCO3)c1)c1ccccc1 | < 50 | < 50 | < 50 | < 50 | < 50 | < 50 |  |

Reference: patent publication US8030336B2, “Nicotinamide-based kinase inhibitors” (YM Biosciences Australia Pty Ltd, priority 2002, dated 2011)
